This is an account of results in patent publication US20240058408A1, “COMPOSITION FOR PREVENTING OR TREATING MACULAR DEGENERATION CONTAINING GINSENG BERRY EXTRACT” (HOLISTIC BIO CO., LTD., priority 2020, published 2024).

This assay has as its system ARPE-19 cells. Nature of the assay: Cell protection against blue light-induced photooxidation of A2E, extract treated after A2E. Type of assay: cell-based. The note with it: Homo sapiens, ARPE-19, 20 min; 30 μM after A2E 20 μM (positive control), blue light 430 nm 6000 lux 20 min; read-out: cell viability compared to the normal group. On the procedure:
To investigate the photooxidation by blue light induction (post-treatment), ARPE-19 cells were seeded to a 96-well plate at 1×10^4 cell/well and then incubated→(24 hr later) A2E (20 μM) pre-treated once→(after 24 hr) post-treated with a ginseng berry extract (25, 50, 100 μg/ml) once→(after 24 hr) irradiated with blue light (6000 lux, 20 min)→and then, (after 24 hr) the cell viability was measured by using the cell count kit. Since the A2E accumulated in human retinal pigment epithelial cells (ARPE-19 cells) is known to induce cytotoxicity when irradiated with blue light (BL), cell protective capability and cell viability against blue light-induced photooxidation were analyzed. Human retinal pigment epithelial cells (ARPE-19 cells) were aliquoted in a 96-well tissue culture plate at a density of 1×10^4 cells/well and cultured for 24 hours. After treating with A2E at a concentration of 20 μM and culturing for 24 hours, the experimental group was treated with 25, 50, and 100 μg/mL of the ginseng berry extract, a positive control group was treated with 30 μM of lutein instead of the ginseng berry extract, and A2E was accumulated in a negative control group without preliminary drug treatment. After culturing for 24 hours, blue light (BL, 430 nm, 6000 lux) was irradiated for 20 minutes, and after 24 hours, the cell viability was measured by using the cell count kit.

By viability is commonly meant a read-out of living cells in per cent, often relative to untreated cells.

On to `CC1=C[C@H](O)CC(C)(C)[C@H]1/C=C/C(C)=C/C=C/C(C)=C/C=C/C=C(C)/C=C/C=C(C)/C=C/C1=C(C)C[C@@H](O)CC1(C)C` [lutein], for which the viability at 30 µM came out at 88.2%.
